Experiment [1] has as its target T1, TSPO (Homo sapiens, UniProt P30536).
T1 construct: Assays of [^3H]; host or cells: SCC-25 and SCC-15 human oral cancer cell lines
Nature of the experiment: [3H]PK 11195 binding to membranes of SCC-15 cells, Scatchard analysis. As to conditions: mean±SD, n=16. The procedure:
(§1) Assays of [^3H] […] After 80 minute incubation at 4° C., the samples were filtered through Whatman CF/C filters using a vacuum system, washed three times with 4 ml of 5 mM ice cold phosphate buffer and placed in vials containing 4 ml of CytoScint™ (MP Biomedicals, Costa Mesa, Calif.). Radioactivity was counted after 12 hours with a liquid scintillation analyzer. Specific binding was obtained by subtracting non-specific binding from total binding.

The target in experiment [2] is T1, TSPO. Nature of the experiment: [3H]PK 11195 binding to membranes of SCC-25 cells, Scatchard analysis. The conditions noted are these: mean±SD, n=7. How it is done:
as §1

The text below walks through data of US9075060B2, “Methods for diagnosing oral or oral-pharyngeal cancer” (Technion Research & Development Foundation Limited, priority 2009, dated 2015).

T1 sequence (P30536 whole entry): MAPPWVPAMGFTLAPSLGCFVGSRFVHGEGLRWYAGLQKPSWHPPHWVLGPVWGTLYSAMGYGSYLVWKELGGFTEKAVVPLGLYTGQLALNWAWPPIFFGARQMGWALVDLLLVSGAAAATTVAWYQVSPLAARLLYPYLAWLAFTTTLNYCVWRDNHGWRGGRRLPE

`CCC(C)N(C)C(=O)c1cc2ccccc2c(-c2ccccc2Cl)n1` (centres unmarked) [[^3H]PK 11195, PK 11195]: the “Bmax (maximal binding capacity)” value in experiment [1] is on record as 6956±549 fmoles/mg protein; in experiment [2] it was 3133±643 fmoles/mg protein.
